Assay results: patent US9394297B2, “Amides as pim inhibitors” (AMGEN INC., priority 2012, dated 2016)
Where two headings read alike, the source gives them in different places.

Tests used:
[1] = test system: KMS-12-BM myeloma cell line; assay: Pim KMS-12 cell assay (phospho-BAD S112 / total BAD, MSD)
Pim-2 = Pim-2 (Homo sapiens (Human), UniProt Q9P1W9); assay: Pim-Mn enzyme assay (HTRF, 384-well), Pim-2; format: biochemical; conditions: Pim-2 enzyme 0.5 pM, ATP 1.5 μM, BAD (S112) 0.5 μM, HTRF, 22-point curve; read-out: Pim-2-Mn IC50 IP
Pim-1 = Pim-1 (Homo sapiens (Human), UniProt P11309); assay: Pim-Mn enzyme assay (HTRF, 384-well), Pim-1; format: biochemical; conditions: read-out: Pim-1-Mn IC50 IP
[2] = Homo sapiens, KMS-12-BM, read-out: KMS-12-BM IC50 IP, KMS-12-BM cells, phospho-BAD (S112) vs total BAD, 1 hour 50 min with compound
[3] = Pim-1 enzyme 5 pM, ATP 1.5 μM, BAD (S112) 0.5 μM, HTRF, 22-point curve
[4] = Homo sapiens, KMS-12-BM, read-out: KMS-12-BM IC50 IP
[5] = read-out: KMS-12-BM IC50 IP, KMS-12-BM cells, phospho-BAD (S112) vs total BAD, 1 hour 50 min with compound

Pim-2, sequence (Q9P1W9 whole entry): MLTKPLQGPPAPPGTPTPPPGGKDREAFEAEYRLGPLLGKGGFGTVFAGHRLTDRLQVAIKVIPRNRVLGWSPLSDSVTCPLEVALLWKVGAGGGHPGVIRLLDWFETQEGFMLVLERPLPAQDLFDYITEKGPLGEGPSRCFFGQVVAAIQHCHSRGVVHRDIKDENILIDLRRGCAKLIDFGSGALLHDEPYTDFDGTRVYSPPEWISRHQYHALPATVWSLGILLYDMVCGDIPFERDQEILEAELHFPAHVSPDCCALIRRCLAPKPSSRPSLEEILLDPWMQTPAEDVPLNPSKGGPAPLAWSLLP
Pim-1, sequence (P11309 whole entry): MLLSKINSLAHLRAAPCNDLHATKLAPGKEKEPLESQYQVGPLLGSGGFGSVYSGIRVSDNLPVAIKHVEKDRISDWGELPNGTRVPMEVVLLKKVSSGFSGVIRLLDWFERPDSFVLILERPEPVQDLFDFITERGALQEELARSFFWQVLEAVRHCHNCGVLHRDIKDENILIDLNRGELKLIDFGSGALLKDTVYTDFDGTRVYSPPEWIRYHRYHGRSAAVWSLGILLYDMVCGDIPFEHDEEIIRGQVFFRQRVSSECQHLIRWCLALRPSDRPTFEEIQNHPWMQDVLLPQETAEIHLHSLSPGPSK

| Compound | IC50 [1, 2] [nM] | IC50 (Pim-2) [nM] | IC50 (Pim-1; [3]) [nM] | IC50 [1, 5] [nM] | IC50 (Pim-1) [nM] | IC50 [1, 4] [nM] |
| --- | --- | --- | --- | --- | --- | --- |
| Cc1nc2cccc(-c3cc4c([nH]3)CCNC4=O)c2nc1NCC(C)(C)O [Example 148, 2-(3-((2-hydroxy-2-methylpropyl)amino)-2-methylquinoxalin-5-yl)-6,7-dihydro-1H-pyrrolo[3,2-c]pyridin-4(5H)-one] | 420 | 8.7 | 8 |  |  |  |
| Cc1nc2cccc(-c3cc4c([nH]3)CCNC4=O)c2nc1NC1CCCC(O)C1 (racemic) [Example 204, 2-(3-((3-hydroxycyclohexyl)amino)-2-methylquinoxalin-5-yl)-6,7-dihydro-1H-pyrrolo[3,2-c]pyridin-4(5H)-one] | 445 | 3.5 | 2.6 |  |  |  |
| CC1(C)COCCN1c1cnc2cccc(-c3cc4c([nH]3)CCNC4=O)c2n1 [Example 213, 2-(3-(3,3-dimethylmorpholino)quinoxalin-5-yl)-6,7-dihydro-1H-pyrrolo[3,2-c]pyridin-4(5H)-one] | 227 | 3.2 |  |  | 1.6 |  |
| Cc1nc2cccc(-c3cc4c([nH]3)CCNC4=O)c2nc1NC1(C)CCCCC1 [Example 155, 2-(2-methyl-3-((1-methylcyclohexyl)amino)quinoxalin-5-yl)-6,7-dihydro-1H-pyrrolo[3,2-c]pyridin-4(5H)-one] | 292 | 1.5 |  |  | 0.7 |  |
| CC1(C)CN(c2cnc3cccc(-c4cc5c([nH]4)CCNC5=O)c3n2)CCN1 [Example 214, 2-(3-(3,3-dimethylpiperazin-1-yl)quinoxalin-5-yl)-6,7-dihydro-1H-pyrrolo[3,2-c]pyridin-4(5H)-one] | 9870 | 58 | 4.7 |  |  |  |
| Cc1nc2cccc(-c3cc4c([nH]3)CCNC4=O)c2nc1NC1CCOC1 (racemic) [Example 71, 2-(2-methyl-3-((±)-tetrahydro-3-furanylamino)-5-quinoxalinyl)-1,5,6,7-tetrahydro-4H-pyrrolo[3,2-c]pyridin-4-one] | 474 | 6.1 | 6.4 |  |  |  |
| CCNc1nc2c(-c3cc4c([nH]3)CCNC4=O)cccc2nc1C [Example 69, 2-(3-(ethylamino)-2-methyl-5-quinoxalinyl)-1,5,6,7-tetrahydro-4H-pyrrolo[3,2-c]pyridin-4-one] |  | 1.7 | 3.4 |  |  | 223 |
| Cc1nc2cccc(-c3cc4c([nH]3)CCNC4=O)c2nc1N(C)C(C)(C)C [Example 222, 2-(3-(tert-butyl(methyl)amino)-2-methylquinoxalin-5-yl)-6,7-dihydro-1H-pyrrolo[3,2-c]pyridin-4(5H)-one] |  | 2.1 | 3.5 |  |  | 397 |
| CN(c1cnc2cccc(-c3cc4c([nH]3)CCNC4=O)c2n1)C(C)(C)C [Example 215, 2-(3-(tert-butyl(methyl)amino)quinoxalin-5-yl)-6,7-dihydro-1H-pyrrolo[3,2-c]pyridin-4(5H)-one] |  | 0.7 | 0.6 |  |  | 153 |
| O=C1NCCc2[nH]c(-c3cccc4ccc(NC5CC5)nc34)cc21 [Example 99, 2-(2-(cyclopropylamino)quinolin-8-yl)-6,7-dihydro-1H-pyrrolo[3,2-c]pyridin-4(5H)-one] | 723 | 7 | 1.1 |  |  |  |
| Cc1nc2cccc(-c3cc4c([nH]3)CCNC4=O)c2nc1NCC(C)(C)N [Example 70, 2-(3-((2-amino-2-methylpropyl)amino)-2-methyl-5-quinoxalinyl)-1,5,6,7-tetrahydro-4H-pyrrolo[3,2-c]pyridin-4-one] | 2910 | 6.3 | 4.3 |  |  |  |
| Cc1nc2cccc(-c3cc4c([nH]3)CCNC4=O)c2nc1NC1(C)CCOCC1 [Example 203, 2-(2-methyl-3-((4-methyltetrahydro-2H-pyran-4-yl)amino)quinoxalin-5-yl)-6,7-dihydro-1H-pyrrolo[3,2-c]pyridin-4(5H)-one] | 232 | 5.6 | 1.2 |  |  |  |
| Cc1nc2cccc(-c3cc4c([nH]3)CCNC4=O)c2nc1NC1CCCCC1O (racemic) [Example 205, 2-(3-((2-hydroxycyclohexyl)amino)-2-methylquinoxalin-5-yl)-6,7-dihydro-1H-pyrrolo[3,2-c]pyridin-4(5H)-one] | 1140 | 4.5 | 4.9 |  |  |  |
| Cc1nc2cccc(-c3cc4c([nH]3)CCNC4=O)c2nc1SC(C)(C)C [Example 221, 2-(3-(tert-butylthio)-2-methylquinoxalin-5-yl)-6,7-dihydro-1H-pyrrolo[3,2-c]pyridin-4(5H)-one] | 750 | 4.3 | 3.1 |  |  |  |
| Cc1nc2cccc(-c3cc4c([nH]3)CCNC4=O)c2nc1N(C)C(C)C [Example 68, 2-(2-methyl-3-(methyl(1-methylethyl)amino)-5-quinoxalinyl)-1,5,6,7-tetrahydro-4H-pyrrolo[3,2-c]pyridin-4-one] | 445 | 6.1 | 4.5 |  |  |  |
| CC1(C)CNCCN1c1cnc2cccc(-c3cc4c([nH]3)CCNC4=O)c2n1 [Example 217, 2-(3-(2,2-dimethylpiperazin-1-yl)quinoxalin-5-yl)-6,7-dihydro-1H-pyrrolo[3,2-c]pyridin-4(5H)-one] | 933 | 5.3 | 2 |  |  |  |

Now from value to compound, other results behind:

| IC50 [1, 2] [nM] | IC50 (Pim-2) [nM] | IC50 (Pim-1; [3]) [nM] | IC50 [1, 5] [nM] | Compound | IC50 (Pim-1) [nM] | IC50 [1, 4] [nM] |
| --- | --- | --- | --- | --- | --- | --- |
| 418 | 2 | 1.3 |  | Cc1nc2cccc(-c3cc4c([nH]3)CCNC4=O)c2nc1N[C@H](C)C1CC1 [Example 271, 2-(3-(((1R)-1-cyclopropylethyl)amino)-2-methyl-5-quinoxalinyl)-1,5,6,7-tetrahydro-4H-pyrrolo[3,2-c]pyridin-4-one] |  |  |
| 243 | 1.23 | 1.6 |  | Cc1nc2cccc(-c3cc4c(=O)[nH]cnc4[nH]3)c2nc1NC1CCC1 [Example 260, 6-(3-(cyclobutylamino)-2-methylquinoxalin-5-yl)-3H-pyrrolo[2,3-d]pyrimidin-4(7H)-one] |  |  |
| 215 | 1.4 | 2.2 |  | Cc1nc2cccc(-c3cc4c([nH]3)CCNC4=O)c2nc1N[C@@H](C)C1CC1 [Example 270, 2-(3-(((1S)-1-cyclopropylethyl)amino)-2-methyl-5-quinoxalinyl)-1,5,6,7-tetrahydro-4H-pyrrolo[3,2-c]pyridin-4-one] |  |  |
| 533 | 2.8 | 6.7 |  | Cc1nc2cccc(-c3cc4c([nH]3)CCNC4=O)c2nc1NCC1(C)COC1 [Example 281, 2-(2-methyl-3-(((3-methyl-3-oxetanyl)methyl)amino)-5-quinoxalinyl)-1,5,6,7-tetrahydro-4H-pyrrolo[3,2-c]pyridin-4-one] |  |  |
| 169 | 0.4 | 1 |  | Cc1nc2cccc(-c3cc4c([nH]3)CCNC4=O)c2nc1NC1(CO)CC1 [Example 277, 2-(3-((1-(hydroxymethyl)cyclopropyl)amino)-2-methyl-5-quinoxalinyl)-1,5,6,7-tetrahydro-4H-pyrrolo[3,2-c]pyridin-4-one] |  |  |
| 713 | 1.9 | 3.1 |  | Cc1nc2cccc(-c3cc4c([nH]3)CCNC4=O)c2nc1NC1CC(O)C1 (stereo not drawn) [Example 72, 2-(3-((3-hydroxycyclobutyl)amino)-2-methyl-5-quinoxalinyl)-1,5,6,7-tetrahydro-4H-pyrrolo[3,2-c]pyridin-4-one] |  |  |
| 538 | 2.3 | 1.3 |  | CC1(C)CCCCN1c1cnc2cccc(-c3cc4c([nH]3)CCNC4=O)c2n1 [Example 212, 2-(3-(2,2-dimethylpiperidin-1-yl)quinoxalin-5-yl)-6,7-dihydro-1H-pyrrolo[3,2-c]pyridin-4(5H)-one] |  |  |
| 892 | 1.2 | 0.6 |  | Cc1nc2cccc(-c3cc4c([nH]3)CCNC4=O)c2nc1N[C@@H]1CCCNC1 [Example 75, 2-(2-methyl-3-((3R)-3-piperidinylamino)-5-quinoxalinyl)-1,5,6,7-tetrahydro-4H-pyrrolo[3,2-c]pyridin-4-one] |  |  |
| 41.3 | 0.3 | 0.3 |  | Cc1nc2cccc(-c3cc4c([nH]3)CCNC4=O)c2nc1NC1(C)CC1 [Example 202, 2-(2-methyl-3-((1-methylcyclopropyl)amino)quinoxalin-5-yl)-6,7-dihydro-1H-pyrrolo[3,2-c]pyridin-4(5H)-one] |  |  |
| 86.3 | 0.1 | 0.1 |  | CCN(c1cnc2cccc(-c3cc4c([nH]3)CCNC4=O)c2n1)C(C)(C)C [Example 220, 2-(3-(tert-butyl(ethyl)amino)quinoxalin-5-yl)-6,7-dihydro-1H-pyrrolo[3,2-c]pyridin-4(5H)-one] |  |  |
| 167 | 0.6 | 0.4 |  | Cc1nc2cccc(-c3cc4c([nH]3)CCNC4=O)c2nc1NC1(C)CCCC1 [Example 67, 2-(2-methyl-3-((1-methylcyclopentyl)amino)-5-quinoxalinyl)-1,5,6,7-tetrahydro-4H-pyrrolo[3,2-c]pyridin-4-one] |  |  |
|  | 0.7 | 2.7 | 215 | COCC(C)(C)Nc1nc2c(-c3cc4c([nH]3)CCNC4=O)cccc2nc1C [Example 66, 2-(3-((2-methoxy-1,1-dimethylethyl)amino)-2-methyl-5-quinoxalinyl)-1,5,6,7-tetrahydro-4H-pyrrolo[3,2-c]pyridin-4-one] |  |  |
|  | 0.8 | 3.3 | 199 | 2′-(3-(cyclopropylamino)-6-fluoro-2-methylquinoxalin-5-yl)-1′H-spiro[cyclopropane-1,6′-pyrrolo[3,4-b]pyrrol]-4′(5′H)-one [Example 283] |  |  |
